Tests used:
human RBP4 = target: T1, human RBP4 (Homo sapiens, UniProt P02753); test: Binding assay by Retinol-RBP4-TTR ELISA (human type ELISA); details: retinol 0.5 μM, read-out: human RBP4 binding inhibitory activity (IC50 nM)
T1 construct: the culture supernatant containing secreted/expressed hRBP4-His was recovered; His tag (His6, read from the HISENU oligo); made in house; host or cells: FreeStyle293 expression system (Invitrogen), secreted into the culture supernatant
Procedure: The action of the compound of the present invention to inhibit the binding between RBP4, and retinol and TTR was evaluated using the Retinol-RBP4-TTR ELISA (human type ELISA) system shown below.
The binding assay was performed by an ELISA system (Retinol-RBP4-TTR ELISA) for detecting retinol-RBP4-TTR conjugate by streptavidin-biotin reaction.
His-tagged human RBP4 used was prepared in the above-mentioned 1C.
Biotinylated human TTR used was prepared in the above-mentioned 1E.
Streptavidin (20 μl) (10 μg/ml Streptavidin type II (Wako Pure Chemical Industries, Ltd.), 10 mM Tris-HCl (pH 7.5), 10 mM NaCl) was added to a 384 well black maxisorp plate (Nunc), and the plate was subjected to centrifugation (1000 rpm, 1 min) and coated overnight at 4° C. The plate was washed twice with PBST (PBS, 0.05% Tween 20, 100 μl/well) and blocked with 25% Block Ace (Snow Brand Milk Products Co., Ltd., PBS, 100 μl/well). The plate was subjected to centrifugation (1000 rpm, 1 min) and incubated at room temperature for 4 hr or overnight at 4° C. The plate was washed twice with PBST (PBS, 0.05% Tween 20, 100 μl/well), and biotinylated human TTR (stock solution concentration 1.3 mg/ml) diluted 1000-fold with PBST was added at 20 μl/well. The plate was subjected to centrifugation (1000 rpm, 1 min) and stood still at room temperature for 1.5 hr or overnight at 4° C. The plate was washed 3 times with PEST (100 μl/well), and His-tagged human RBP4 (stock solution concentration 0.96 mg/ml) diluted 4000-fold with a reaction buffer (50 mM Tris-HCl, 150 mM NaCl, 0.005% Tween 20, 1 mM DTT, 0.1% BSA) was added at 10 μl/well. The dilution series (8 doses from 10 mM, 200-fold concentration) of the compound was prepared with DMSO, and 1 μl of each was added to a reaction buffer (200 μl) containing retinol (0.5 μM) (Sigma-Aldrich Co.). A reaction buffer (200 μl) containing retinol and added with DMSO was used as a positive control, and reaction buffer (200 μl) free of retinol and added with DMSO was used as a negative control. Mixed solutions of retinol and the compound were added to the plate at 15 μl/well. The mixture was stirred in a platemixer, subjected to centrifugation (1000 rpm, 1 min) and reacted at room temperature for 2 hr. A 35% Block Ace solution diluted with the reaction buffer was added at 10 μl/well, centrifuged (1000 rpm, 1 min) and reacted at room temperature for 30 min. The plate was washed 3 times with PBST (100 μl/well) and SuperSignal ELISA Femto Maximum Sensitivity Substrate reagent (PIERCE) was added at 30 μl/well, and the luminescence was measured by a platereader (Wallac).
The binding activity rate of the compound was determined by 100×(test compound value−negative control value)/(positive control value−negative control value). The binding inhibitory activity (IC50) was calculated from the binding activity rate at each compound concentration using a graph drawing software, Prism (GraphPad Software Inc.).

RBP4 = target: T2, RBP4 (Mus musculus, UniProt Q00724); test: Blood RBP4 lowering action in C57BL/6J mouse, single oral administration; type: in vivo; details: plasma, mean±SD n=5; for RBP4 (% of initial/Control) 0 hr later: 0 hr value before administration, 50 mg/kg oral; for RBP4 (% of initial/Control) 4 hr later: 4 hr after 50 mg/kg oral; for RBP4 (% of initial/Control) 7 hr later: 7 hr after 50 mg/kg oral; for RBP4 (% of initial/Control) 24 hr later: 24 hr after 50 mg/kg oral
T2 construct: from tissue; host or cells: plasma of male C57BL/6J mice (Charles River Laboratories Japan Inc.)
Procedure: A blood RBP4 lowering action of the compound of the present invention was evaluated using C57BL/6J mouse.
Male 7- to 15-week-old C57BL/6J mice (Charles River Laboratories Japan Inc.) were individually bred for acclimation for 4-6 days under conditions with free access to CE-2 solid food (CLEA Japan, Inc.), and grouped based on the body weight (5 per group). The next day of grouping, blood samples were collected from the orbital venous plexus, and plasma was separated (0 hr value). Thereafter, the test compounds (Examples 1, 13, 15, 16, 17, 27 and 34) were orally administered at a dose of 50 mg/kg (solvent: 0.5% methylcellulose solution (10 mL/kg)). At 4, 7 and 24 hr after administration of the compounds, blood samples were collected from the orbital venous plexus, and plasma was separated. A 0.5% methylcellulose solution (10 mL/kg) was orally administered to the control group.
The RBP4 level of the collected plasma was measured by ELISA. RBP4 was quantified by the following steps using a rabbit, anti-mouse RBP4 polyclonal antibody (Hokudo Co., Ltd). A 96 well ELISA plate was coated with 50 μg/ml of the antibody (100 μL) and stood at 4° C. overnight. After blocking with BlockAce (DAINIPPON PHARMACEUTICAL CO., LTD.), mouse RBP4 or a sample (100 μL) was added and the plate was stood at room temperature for 2 hr. After washing with PBS-0.5% Tween 20, HRP-labeled anti-RBP4 antibody (prepared by labeling RBP4 polyclonal antibody (Hokudo Co., Ltd) with HRP (DOJINDO LABORATORIES)) was added by 100 μL, and the plate was stood at room temperature for 1 hr. After washing, TMB (Dako Cytomations) was added, and the mixture was stood at room temperature for 20 min to allow color development, and the reaction was quenched with 2N sulfuric acid. Thereafter, the absorbance at A450 nm was measured on a platereader. The amount of change from the initial value of each animal was determined as a relative value from the control group (% of initial/Control) at each time point. The results are shown in the following in mean±standard deviation (n=5).

Zucker fa/fa rats = test: Hypoglycemic action in Zucker fa/fa rats (Experimental Example 4B); type: in vivo, rat; details: 10 mg/kg oral for 2 weeks, mean±SD n=5; for blood glucose level / RBP4: 24 hr after final administration; for glycated hemoglobin change (%): value after minus before administration; for RBP4: plasma
Procedure: A hypoglycemic action of the compound of the present invention was evaluated using Zucker fa/fa rats.
Male 25-week-old Zucker fa/fa rats (Takeda Pharmaceutical Company Limited) were acclimation bred in groups on CE-2 solid food (CLEA Japan, Inc.) up to 12 weeks of age, thereafter on high-fat diet D06110702 (LSG Corporation), with free access to food. At 25 weeks of age, the rats were grouped based on the body weight, blood glucose level, glycated hemoglobin level and blood RBP4 level (5 per group). Then, test compounds (Examples 16 and 17) were orally administered at a dose of 10 mg/kg (solvent: 0.5% methylcellulose solution (3 mL/kg)) for 2 weeks. At 24 hr from the final administration of the compounds, blood samples were collected from the tail vein, and plasma was separated. Using the collected plasma, (1) RBP4 concentration, (2) glycated hemoglobin level and (3) blood glucose level were measured. (1) was quantified according to the protocol described in Experimental Example 3. (2) was measured using Tosoh Corporation automatic glycohamoglobin analyzer (HLC-723 GHbV A1c2.2 or HLC-723G7 GHbV A1c2.2), and (3) was measured using Hitachi full-automatic analyzer (7070 or 7080).
A 0.5% methylcellulose solution (3 ml/kg) was orally administered to the control group. The results are shown below in mean±standard deviation (n=5). In the following Table, glycated hemoglobin change is obtained by subtracting the value before administration from that after administration.

Row | IC50 (human RBP4) | RBP4 (% of initial/Control) 0 hr later (RBP4) | RBP4 (% of initial/Control) 4 hr later (RBP4) | RBP4 (% of initial/Control) 7 hr later (RBP4) | RBP4 (% of initial/Control) 24 hr later (RBP4) | SMILES | blood glucose level (Zucker fa/fa rats) | glycated hemoglobin change (%) (Zucker fa/fa rats) | RBP4 (Zucker fa/fa rats)
1 | 28 nM | 100.0 ± 11.0 % of initial/Control | 39.5 ± 0.6 % of initial/Control | 39.6 ± 0.4 % of initial/Control | 37.5 ± 0.4 % of initial/Control | O=C(O)CO[C@H]1CCN(c2cc(C(F)(F)F)cc(C(F)(F)F)c2)C1 [Example 16, ({(3S)-1-[3,5-bis(trifluoromethyl)phenyl]pyrrolidin-3-yl}oxy)acetic acid] | 275.9 ± 127.5 mg/dL | −0.58 ± 0.59% | 5.7 ± 0.1 µg/mL
2 | 20 nM | 100.0 ± 7.1 % of initial/Control | 42.2 ± 0.6 % of initial/Control | 40.5 ± 0.2 % of initial/Control | 38.6 ± 0.8 % of initial/Control | O=C(O)CO[C@@H]1CCN(c2cc(C(F)(F)F)cc(C(F)(F)F)c2)C1 [Example 17, ({(3R)-1-[3,5-bis(trifluoromethyl)phenyl]pyrrolidin-3-yl}oxy)acetic acid] | 255.4 ± 106.7 mg/dL | −0.60 ± 0.39% | 6.0 ± 0.1 µg/mL

From patent US8338622B2, “Heterocyclic compound” (Takeda Pharmaceutical Company Limited, priority 2008, dated 2012)
